Reference: ChEMBL document CHEMBL4622929 (Bioorg Med Chem Lett, 2020)

Tests used:
[1] = biological target: Adenosine receptor A2a (Rattus norvegicus) (UniProt P30543); experiment: Displacement of [3H]NECA from Sprague-Dawley rat striatal membrane A2A adenosine receptor at 100 uM by scintillation counting analysis relative to control; assay type: cell membranes; conditions: Striatum
Adenosine receptor A2a = Adenosine receptor A2a (Rattus norvegicus, UniProt P30543); experiment: Displacement of [3H]NECA from Sprague-Dawley rat striatal membrane A2A adenosine receptor by scintillation counting analysis; assay type: cell membranes, Striatum
Sequence of Adenosine receptor A2a (P30543 whole entry): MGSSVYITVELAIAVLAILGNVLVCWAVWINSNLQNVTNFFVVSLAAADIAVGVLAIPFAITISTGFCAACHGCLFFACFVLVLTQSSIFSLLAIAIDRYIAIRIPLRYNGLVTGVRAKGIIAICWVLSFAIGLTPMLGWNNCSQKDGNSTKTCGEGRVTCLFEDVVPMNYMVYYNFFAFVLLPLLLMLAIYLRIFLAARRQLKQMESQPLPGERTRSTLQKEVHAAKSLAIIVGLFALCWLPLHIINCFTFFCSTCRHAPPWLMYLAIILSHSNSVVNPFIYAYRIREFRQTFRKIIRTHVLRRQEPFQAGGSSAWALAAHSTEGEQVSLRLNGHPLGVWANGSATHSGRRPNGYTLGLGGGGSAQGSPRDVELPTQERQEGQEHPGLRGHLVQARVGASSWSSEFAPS

[2] = biological target: T1, Adenosine receptor A1 (Rattus norvegicus) (UniProt P25099); experiment: Displacement of [3H]DPCPX from Sprague-Dawley rat whole brain membrane A1AR at 100 uM by scintillation counting analysis relative to control; assay type: cell membranes
T1 sequence (whole entry): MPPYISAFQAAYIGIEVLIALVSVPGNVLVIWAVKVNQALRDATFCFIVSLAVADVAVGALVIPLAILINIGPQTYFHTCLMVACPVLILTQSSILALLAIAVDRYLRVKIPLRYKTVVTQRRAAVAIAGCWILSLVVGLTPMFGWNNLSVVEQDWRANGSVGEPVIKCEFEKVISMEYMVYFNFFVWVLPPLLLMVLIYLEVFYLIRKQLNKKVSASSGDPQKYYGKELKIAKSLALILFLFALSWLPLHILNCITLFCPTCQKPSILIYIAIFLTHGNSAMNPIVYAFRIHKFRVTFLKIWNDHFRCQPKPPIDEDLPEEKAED

Adenosine receptor A1 [3] = biological target: T2, Adenosine receptor A1 (Rattus norvegicus, UniProt P25099); experiment: Displacement of [3H]DPCPX from Sprague-Dawley rat whole brain membrane A1AR by scintillation counting analysis; assay type: cell membranes
T2 sequence (P25099 whole entry): T1 sequence (whole entry)

Adenosine receptor A1 [4] = biological target: T2, Adenosine receptor A1; experiment: Displacement of [3H]DPCPX from Sprague-Dawley rat whole brain membrane A1AR in presence of GTP by radioligand binding assay; assay type: cell membranes
[5] = biological target: T1, Adenosine receptor A1 (Rattus norvegicus); experiment: Ratio of Ki for displacement of [3H]DPCPX from Sprague-Dawley rat whole brain membrane A1AR in presence of GTP to Ki for displacement of [3H]DPCPX from Sprague-Dawley rat whole brain A1AR; assay type: cell membranes
Rattus norvegicus = organism: Rattus norvegicus; experiment: Selectivity index, ratio of Ki for Sprague-Dawley rat striatal membrane A2 adenosine receptor to Ki for Sprague-Dawley rat whole brain A1 adenosine receptor

Sequence of Adenosine receptor A2a (Rattus norvegicus) (P30543 whole entry): as the sequence (P30543 whole entry) above

inhibition [1] [%]	Ki (Adenosine receptor A2a) [µM]	inhibition [2] [%]	Ki (Adenosine receptor A1 [3]) [µM]	Ki (Adenosine receptor A1 [4]) [µM]	Ratio Ki [5]	Ratio Ki (Rattus norvegicus)	Structure (SMILES)
62	> 100	50	> 100				Oc1nc(-c2ccc(F)cc2)nc2ccccc12
79		44					COc1ccc(-c2nc(O)c3ccccc3n2)cc1
55	> 100		2.5	2.95	1.18		Cc1ccc(-c2nc3ccccc3c(=O)[nH]2)cc1
84	> 100	98	> 100				O=c1[nH]c(-c2ccc(Br)cc2)nc2ccccc12
77	> 100	99	> 100				CCOc1ccc(-c2nc3ccccc3c(=O)o2)cc1
66	> 100	42	> 100				O=c1oc(-c2ccco2)nc2ccccc12
85	> 100	56	> 100				O=c1oc(/C=C/c2ccccc2)nc2ccccc12
59	> 100		32.4				O=c1oc(-c2cccs2)nc2ccccc12
82	> 100	54	> 100				O=c1[nH]c(-c2ccc(Cl)cc2)nc2ccccc12
91	> 100		17.3				O=c1oc2ccccc2nc1-c1ccccc1
49	> 100		6.38	6.92	1.09		O=c1oc(-c2ccccc2)nc2ccccc12
81	> 100	86	> 100				O=c1oc(-c2ccc(Cl)cc2)nc2ccccc12
77	> 100	84	> 100				Cc1ccc(-c2nc3ccccc3c(=O)o2)cc1
92	> 100	95	> 100				O=c1oc(-c2ccc(Br)cc2)nc2ccccc12

More lines, now with the values behind:

Structure (SMILES)	inhibition [1] [%]	Ki (Adenosine receptor A2a) [µM]	inhibition [2] [%]	Ki (Adenosine receptor A1 [3]) [µM]	Ki (Adenosine receptor A1 [4]) [µM]	Ratio Ki [5]	Ratio Ki (Rattus norvegicus)
Oc1nc(-c2ccccc2)cc2ccccc12	100		100				
O=C1OC(c2ccccc2)Nc2ccccc21 (centres undefined)	69	> 100		5.06	5.72	1.12	
COc1ccc(-c2nc3ccccc3c(=O)o2)cc1	37	> 100	54	> 100			
O=c1[nH]c(-c2ccco2)nc2ccccc12		8.11		4.62	5.89	1.23	1.76
O=c1oc(-c2ccc(F)cc2)nc2ccccc12	70	> 100	100	> 100			
COc1ccc(-c2nc(O)c3ccccc3n2)cc1OC		2.81	67	> 100			
O=c1[nH]c(-c2ccccc2)cc2ccccc12		> 100		> 100			
COc1ccc(-c2nc3ccccc3c(=O)[nH]2)cc1		> 100		> 100			
O=c1[nH]c(/C=C/c2ccccc2)nc2ccccc12	56	> 100	100	> 100			
Oc1nc(-c2cccs2)nc2ccccc12	30	> 100	39	> 100			
OC[C@H]1O[C@@H](n2cnc3c(NC4CCCC4)ncnc32)[C@H](O)[C@@H]1O [N6-CYCLOPENTYLADENOSINE]		0.557					
O=c1oc2ccccc2cc1-c1ccccc1	77	> 100	51	> 100			
